Data published in PMC10011554, “BET inhibitor trotabresib in heavily pretreated patients with solid tumors and diffuse large B-cell lymphomas” (Nature Communications, 2023).

Assay: Adverse events, DLTs, MTD and RP2D in phase I study CC-90010-ST-001 (NCI CTCAE v4.03)
Format: in vivo
Protocol: The primary endpoints of the study were the safety and tolerability of trotabresib, as well as the MTD and/or RP2D of trotabresib. Safety was assessed using the National Cancer Institute Common Terminology Criteria for Adverse Events v4.03[53].
The decision to evaluate additional subjects within a dose cohort, a higher dose cohort, intermediate dose cohorts, smaller dose increments, alternate dosing schedules, or declare an MTD will also be determined by the SRC, based on their review of clinical and laboratory safety […]
7.2.4. Definition of a Subject Evaluable for DLT
After the first dose is administered in any cohort during dose escalation, subjects in each cohort […]
more than one subject per day will be enrolled in a given dose escalation cohort.
A subject evaluable for DLT is defined as one that: […]
without experiencing a DLT,
Subjects non-evaluable for DLT will be replaced. Additional subjects within any dose cohort may be enrolled at the discretion of the SRC. Intra-subject dose escalation will not be allowed during the DLT assessment period.
7.2.5. Definition of Maximum Tolerated Dose (MTD) […]
of MTD is described in Section 7.2.2.
A variable dose cohort (eg, less frequent dosing) may be evaluated to accurately determine the MTD at the discretion of the SRC.
7.2.6. Definition of Dose-Limiting Toxicity (DLT) […]
used as a guide for the grading of severity of adverse events. A DLT is defined as any of the following toxicities occurring within the DLT assessment unless the event can clearly be […]
Do se-limiting toxicities are described below:
• Hyperglycemia meeting any of the following criteria:
− Grade 3 or greater fasting hyperglycemia (> 250 mg/dL) lasting > 4 days despite optimal medical treatment
(1 picture or pasted object on this page, not shown here)
− Hyperglycemia associated with diabetic ketoacidosis or nonketotic hyperosmolar coma regardless of glucose level
− Hyperglycemia that necessitates dose reduction despite dose interruption and resolution to ≤ grade 1 hyperglycemia within two weeks as described in […]
• Any Grade 4 non-hematologic toxicity of any duration
• Any non-hematologic toxicity Grade ≥ 3 EXCEPT for:
− Grade 3 diarrhea, nausea, or vomiting of ≤ 3 days duration (with optimal medical […]
− Grade 3 rash of the acneiform, pustular or maculopapular type which resolves to […]
level with resumption of study drug at the same dose (with optimal medical […]
− Grade 3 fatigue which resolves to Grade ≤ 2 within 7 days of study drug […]
the same dose (with optimal medical management).
• Hematological toxicities as follows:
− Grade 4 neutropenia lasting > 7 days
− Grade 4 thrombocytopenia lasting > 7 days, Grade ≥ 3 thrombocytopenia with clinically significant bleeding
• Any AE, Grade ≥ 2 not specified or exempt above, unless clearly determined to be unrelated to the drug, necessitating dose-level reduction during Cycle 1.
Isolated laboratory changes without associated clinical signs or symptoms (eg, hypomagnesemia, hypermagnesemia, hypoalbuminemia, hypophosphatemia, lymphocyte count increased or decreased) may not be included in this definition. These findings will be discussed and reviewed […]
7.2.7. Criteria for Dose Escalation in the Next Cohort of Subjects
During Part A, the dose escalation criteria are described in Section 7.2.2.
7.2.8. Definition of Stopping Criteria
During Part A, the dose escalation stopping rules are in Section 7.2.2.
7.2.9. Permitted Study Drug Adjustments
Dose reductions are permitted in any cycle, including Cycle 1.
• Dose reductions that occur in Cycle 1 during dose escalation will constitute DLT as […]

[1] = part B (12 subjects), 02 Dec 2019 cutoff
[2] = part C, cycles 1 and 2, fasted state (n = 39)
[3] = part C, cycles 1 and 2, fed state (n = 35)

Cn1cc(-c2cc(S(C)(=O)=O)ccc2OCC2CC2)c2ccccc2c1=O [trotabresib]
TRAE: Hyperglycemia (part A, grade 3): 1.45%
TRAE: Hypertension (part A, grade 3): 0%
TRAE: Hyponatremia (part A, grade 3): 1.45%
TRAE: Hypophosphatemia (part A, grade 3): 1.45%
TRAE: Nausea (part A, grade 3): 0%
TRAE: Neutropenia (part A, grade 3): 1.45%
TRAE: Platelet count decreased (part A, grade 3): 1.45%
TRAE: Stomatitis (part A, grade 3): 0%
TRAE: Thrombocytopenia (part A, grade 3): 10.14%
TRAE: Vomiting (part A, grade 3): 0%
TRAE: ALT increased (part A, grade 4): 0%
TRAE: Anemia (part A, grade 4): 0%
TRAE: Any TRAE (part A, grade 4): 7.25%
TRAE: Asthenia (part A, grade 4): 0%
TRAE: Decreased appetite (part A, grade 4): 0%
TRAE: Dehydration (part A, grade 4): 0%
TRAE: Dermatitis acneiform (part A, grade 4): 0%
TRAE: Diarrhoea (part A, grade 4): 0%
TRAE: Dysgeusia (part A, grade 4): 0%
TRAE: Fatigue (part A, grade 4): 0%
TRAE: Hyperglycemia (part A, grade 4): 0%
TRAE: Hypertension (part A, grade 4): 0%
TRAE: Hyponatremia (part A, grade 4): 1.45%
TRAE: Hypophosphatemia (part A, grade 4): 0%
TRAE: Nausea (part A, grade 4): 0%
TRAE: Neutropenia (part A, grade 4): 0%
TRAE: Platelet count decreased (part A, grade 4): 1.45%
TRAE: Stomatitis (part A, grade 4): 0%
TRAE: Thrombocytopenia (part A, grade 4): 2.9%
TRAE: Vomiting (part A, grade 4): 0%
Grade 3 hyperglycemia, treatment-related [1]: 8.3%
Grade 4 hyperglycemia, treatment-related [1]: 8.3%
TEAE anemia [1]: 66.7%
TEAE thrombocytopenia [1]: 58.3%
hyperglycemia [1]: 33.3%
subjects with at least one TEAE [1]: 83.3%
TRAE: ALT increased (part B DLBCL, any grade): 8.7%
TRAE: Anemia (part B DLBCL, any grade): 43.48%
TRAE: Any TRAE (part B DLBCL, any grade): 100%
TRAE: Asthenia (part B DLBCL, any grade): 21.74%
TRAE: Decreased appetite (part B DLBCL, any grade): 21.74%
TRAE: Dehydration (part B DLBCL, any grade): 13.04%
TRAE: Dermatitis acneiform (part B DLBCL, any grade): 0%
TRAE: Diarrhoea (part B DLBCL, any grade): 52.17%
TRAE: Dysgeusia (part B DLBCL, any grade): 8.7%
TRAE: Fatigue (part B DLBCL, any grade): 0%
TRAE: Hyperglycemia (part B DLBCL, any grade): 39.13%
TRAE: Hypertension (part B DLBCL, any grade): 4.35%
TRAE: Hyponatremia (part B DLBCL, any grade): 8.7%
TRAE: Hypophosphatemia (part B DLBCL, any grade): 17.39%
TRAE: Nausea (part B DLBCL, any grade): 21.74%
TRAE: Neutropenia (part B DLBCL, any grade): 39.13%
TRAE: Platelet count decreased (part B DLBCL, any grade): 0%
TRAE: Stomatitis (part B DLBCL, any grade): 17.39%
TRAE: Thrombocytopenia (part B DLBCL, any grade): 91.3%
TRAE: Vomiting (part B DLBCL, any grade): 17.39%
TRAE: ALT increased (part B DLBCL, grade 3): 0%
TRAE: Anemia (part B DLBCL, grade 3): 26.09%
TRAE: Any TRAE (part B DLBCL, grade 3): 26.09%
TRAE: Asthenia (part B DLBCL, grade 3): 8.7%
TRAE: Decreased appetite (part B DLBCL, grade 3): 4.35%
TRAE: Dehydration (part B DLBCL, grade 3): 13.04%
TRAE: Dermatitis acneiform (part B DLBCL, grade 3): 0%
TRAE: Diarrhoea (part B DLBCL, grade 3): 0%
TRAE: Dysgeusia (part B DLBCL, grade 3): 0%
TRAE: Fatigue (part B DLBCL, grade 3): 0%
TRAE: Hyperglycemia (part B DLBCL, grade 3): 4.35%
TRAE: Hypertension (part B DLBCL, grade 3): 4.35%
TRAE: Hyponatremia (part B DLBCL, grade 3): 0%
TRAE: Hypophosphatemia (part B DLBCL, grade 3): 13.04%
TRAE: Nausea (part B DLBCL, grade 3): 4.35%
TRAE: Neutropenia (part B DLBCL, grade 3): 13.04%
TRAE: Platelet count decreased (part B DLBCL, grade 3): 0%
TRAE: Stomatitis (part B DLBCL, grade 3): 0%
TRAE: Thrombocytopenia (part B DLBCL, grade 3): 17.39%
TRAE: Vomiting (part B DLBCL, grade 3): 0%
TRAE: ALT increased (part B DLBCL, grade 4): 0%
TRAE: Anemia (part B DLBCL, grade 4): 0%
TRAE: Any TRAE (part B DLBCL, grade 4): 65.22%
TRAE: Asthenia (part B DLBCL, grade 4): 0%
TRAE: Decreased appetite (part B DLBCL, grade 4): 0%
TRAE: Dehydration (part B DLBCL, grade 4): 0%
TRAE: Dermatitis acneiform (part B DLBCL, grade 4): 0%
TRAE: Diarrhoea (part B DLBCL, grade 4): 0%
TRAE: Dysgeusia (part B DLBCL, grade 4): 0%
TRAE: Fatigue (part B DLBCL, grade 4): 0%
TRAE: Hyperglycemia (part B DLBCL, grade 4): 4.35%
TRAE: Hypertension (part B DLBCL, grade 4): 0%
TRAE: Hyponatremia (part B DLBCL, grade 4): 0%
TRAE: Hypophosphatemia (part B DLBCL, grade 4): 0%
TRAE: Nausea (part B DLBCL, grade 4): 0%
TRAE: Neutropenia (part B DLBCL, grade 4): 13.04%
TRAE: Platelet count decreased (part B DLBCL, grade 4): 0%
TRAE: Stomatitis (part B DLBCL, grade 4): 0%
TRAE: Thrombocytopenia (part B DLBCL, grade 4): 60.87%
TRAE: Vomiting (part B DLBCL, grade 4): 0%
grade 3/4 TRAE anemia (part B R/R DLBCL (N = 23)): 26%
grade 3/4 TRAE neutropenia (part B R/R DLBCL (N = 23)): 26%
grade 3/4 TRAE thrombocytopenia (part B R/R DLBCL (N = 23)): 78%
patients who died due to TEAEs not considered related to study treatment (part B R/R DLBCL (N = 23)): 9%
patients with any-grade TRAEs (part B R/R DLBCL (N = 23)): 100%
patients with grade 3/4 TRAEs (part B R/R DLBCL (N = 23)): 91%
patients with serious TRAEs (part B R/R DLBCL (N = 23)): 30%
further grade 3 and 4 TRAEs reported in one patient each (part B R/R DLBCL population): Grade 3 abdominal infection, blood bilirubin increased, pneumonia and grade 4 blood creatinine increased, febrile neutropenia, leukopenia, and lymphopenia
TEAE leading to death, not considered related (part C (N = 41)): one
grade 3/4 TRAE thrombocytopenia (part C (N = 41)): 17%
patients with any-grade TRAEs (part C (N = 41)): 98%
patients with grade 3/4 TRAEs (part C (N = 41)): 59%
further grade 3 TRAEs reported in one patient each (part C population): Grade 3 gamma-glutamyl transferase increased, hyperamylasemia, and syncope
TRAE: ALT increased (part C, any grade): 21.95%
TRAE: Anemia (part C, any grade): 12.2%
TRAE: Any TRAE (part C, any grade): 97.56%
TRAE: Asthenia (part C, any grade): 41.46%
TRAE: Decreased appetite (part C, any grade): 34.15%
TRAE: Dehydration (part C, any grade): 0%
TRAE: Dermatitis acneiform (part C, any grade): 17.07%
TRAE: Diarrhoea (part C, any grade): 60.98%
TRAE: Dysgeusia (part C, any grade): 53.66%
TRAE: Fatigue (part C, any grade): 26.83%
TRAE: Hyperglycemia (part C, any grade): 19.51%
TRAE: Hypertension (part C, any grade): 4.88%
TRAE: Hyponatremia (part C, any grade): 2.44%
TRAE: Hypophosphatemia (part C, any grade): 4.88%
TRAE: Nausea (part C, any grade): 60.98%
TRAE: Neutropenia (part C, any grade): 12.2%
TRAE: Platelet count decreased (part C, any grade): 0%
TRAE: Stomatitis (part C, any grade): 56.1%
TRAE: Thrombocytopenia (part C, any grade): 63.41%
TRAE: Vomiting (part C, any grade): 43.9%
patients with any-grade TRAEs [2]: 95%
patients with grade 3/4 TRAEs [2]: 33%
patients with any-grade TRAEs [3]: 91%
patients with grade 3/4 TRAEs [3]: 20%
TRAE: ALT increased (part C, grade 3): 2.44%
TRAE: Anemia (part C, grade 3): 0%
TRAE: Any TRAE (part C, grade 3): 56.1%
TRAE: Asthenia (part C, grade 3): 7.32%
TRAE: Decreased appetite (part C, grade 3): 0%
TRAE: Dehydration (part C, grade 3): 0%
TRAE: Dermatitis acneiform (part C, grade 3): 0%
TRAE: Diarrhoea (part C, grade 3): 4.88%
TRAE: Dysgeusia (part C, grade 3): 0%
TRAE: Fatigue (part C, grade 3): 7.32%
TRAE: Hyperglycemia (part C, grade 3): 4.88%
TRAE: Hypertension (part C, grade 3): 2.44%
TRAE: Hyponatremia (part C, grade 3): 2.44%
TRAE: Hypophosphatemia (part C, grade 3): 4.88%
TRAE: Nausea (part C, grade 3): 4.88%
TRAE: Neutropenia (part C, grade 3): 4.88%
TRAE: Platelet count decreased (part C, grade 3): 0%
TRAE: Stomatitis (part C, grade 3): 4.88%
TRAE: Thrombocytopenia (part C, grade 3): 14.63%
TRAE: Vomiting (part C, grade 3): 2.44%
TRAE: ALT increased (part C, grade 4): 0%
TRAE: Anemia (part C, grade 4): 0%
TRAE: Any TRAE (part C, grade 4): 2.44%
TRAE: Asthenia (part C, grade 4): 0%
TRAE: Decreased appetite (part C, grade 4): 0%
TRAE: Dehydration (part C, grade 4): 0%
TRAE: Dermatitis acneiform (part C, grade 4): 0%
TRAE: Diarrhoea (part C, grade 4): 0%
TRAE: Dysgeusia (part C, grade 4): 0%
TRAE: Fatigue (part C, grade 4): 0%
TRAE: Hyperglycemia (part C, grade 4): 0%
TRAE: Hypertension (part C, grade 4): 0%
TRAE: Hyponatremia (part C, grade 4): 0%
TRAE: Hypophosphatemia (part C, grade 4): 0%
TRAE: Nausea (part C, grade 4): 0%
TRAE: Neutropenia (part C, grade 4): 0%
TRAE: Platelet count decreased (part C, grade 4): 0%
TRAE: Stomatitis (part C, grade 4): 0%
TRAE: Thrombocytopenia (part C, grade 4): 2.44%
TRAE: Vomiting (part C, grade 4): 0%
grade 5 TRAEs (whole study): No grade 5 TRAEs were reported
